Active and inactive are the calls of the source. The calls are words filed in the database; no cut-off is given here.
Key:
[1] = target: RAC-beta serine/threonine-protein kinase (Homo sapiens) (UniProt P31751); assay: Inhibition of human wild type AKT2 at 1 uM by qPCR analysis
[2] = target: T1, Tyrosine-protein kinase ABL1 (Homo sapiens, UniProt P00519); assay: Inhibition of human ABL1 mutant at 1 uM by qPCR analysis
[3] = target: Tyrosine-protein kinase ZAP-70 (Homo sapiens, UniProt P43403)
Description: Inhibition of wild type human ZAP70 by high throughput ATP-[33P] radiolabeled assay

[4] = target: Dual specificity protein kinase CLK2 (Homo sapiens) (UniProt P49760); assay: Inhibition of human wild type CLK2 at 1 uM by qPCR analysis relative to control
[5] = target: T2, Receptor-type tyrosine-protein kinase FLT3 (Homo sapiens, UniProt P36888); assay: cell-based
T2 sequence (P36888 whole entry): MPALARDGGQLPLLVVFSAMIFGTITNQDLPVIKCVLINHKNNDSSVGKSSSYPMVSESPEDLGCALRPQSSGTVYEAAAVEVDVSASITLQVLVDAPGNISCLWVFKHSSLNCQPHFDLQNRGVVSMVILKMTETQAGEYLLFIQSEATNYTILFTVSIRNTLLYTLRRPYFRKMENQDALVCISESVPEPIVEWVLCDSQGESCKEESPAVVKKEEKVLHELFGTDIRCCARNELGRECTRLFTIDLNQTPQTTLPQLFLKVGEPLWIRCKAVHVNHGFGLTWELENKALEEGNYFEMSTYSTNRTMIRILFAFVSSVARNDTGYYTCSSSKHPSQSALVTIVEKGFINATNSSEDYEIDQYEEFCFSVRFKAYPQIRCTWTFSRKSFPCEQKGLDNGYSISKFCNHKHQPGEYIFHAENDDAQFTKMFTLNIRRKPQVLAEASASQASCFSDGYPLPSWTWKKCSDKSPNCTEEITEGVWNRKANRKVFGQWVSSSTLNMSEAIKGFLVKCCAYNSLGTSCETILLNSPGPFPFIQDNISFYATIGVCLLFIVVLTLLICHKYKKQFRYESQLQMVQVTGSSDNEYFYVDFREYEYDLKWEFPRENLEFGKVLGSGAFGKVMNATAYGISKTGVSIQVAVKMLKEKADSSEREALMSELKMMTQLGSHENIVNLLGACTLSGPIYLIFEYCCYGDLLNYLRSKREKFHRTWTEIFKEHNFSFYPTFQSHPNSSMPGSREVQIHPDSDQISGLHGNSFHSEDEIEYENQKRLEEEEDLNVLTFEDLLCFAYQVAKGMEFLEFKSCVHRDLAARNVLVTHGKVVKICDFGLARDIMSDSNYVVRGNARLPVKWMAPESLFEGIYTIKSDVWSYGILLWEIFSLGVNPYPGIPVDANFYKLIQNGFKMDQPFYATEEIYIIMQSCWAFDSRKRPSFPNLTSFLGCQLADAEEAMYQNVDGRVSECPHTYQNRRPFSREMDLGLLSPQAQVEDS
Description: Inhibition of FLT3-L-stimulated wild type full length human FLT3 autophosphorylation expressed in MEF preincubated for 90 mins followed by FLT3-L stimulation measured after 5 mins by ELISA

[6] = target: Mast/stem cell growth factor receptor Kit (Homo sapiens) (UniProt P10721); assay: Inhibition of human wild type KIT at 1 uM by qPCR analysis relative to control
[7] = tested on: Leucine-rich repeat serine/threonine-protein kinase 2 (Homo sapiens), Q5S007 [G2019S]; assay: Inhibition of human LRRK2 G2019S mutant at 1 uM by qPCR analysis relative to control
[8] = target: T2, Receptor-type tyrosine-protein kinase FLT3
Description: Inhibition of wild type human FLT3 by high throughput ATP-[33P] radiolabeled assay

[9] = target: Mitogen-activated protein kinase kinase kinase 2 (Homo sapiens, UniProt Q9Y2U5)
Description: Inhibition of wild type human MEKK2 by high throughput ATP-[33P] radiolabeled assay

Cytochrome P450 2D6 = Cytochrome P450 2D6 (Homo sapiens, UniProt P10635)
Description: Inhibition of CYP2D6 in human liver microsomes assessed as inhibition of diclofenac metabolism by HPLC/MS analysis

[10] = target: High affinity nerve growth factor receptor (Homo sapiens, UniProt P04629)
Description: Inhibition of wild type human TRKA by high throughput ATP-[33P] radiolabeled assay

[11] = target: T1, Tyrosine-protein kinase ABL1; assay: Inhibition of human wild type ABL1 at 1 uM by qPCR analysis relative to control
[12] = target: Mitogen-activated protein kinase 11 (Homo sapiens) (UniProt Q15759); assay: Inhibition of human wild type p38b at 1 uM by qPCR analysis
[13] = target: Mitogen-activated protein kinase kinase kinase 9 (Homo sapiens, UniProt P80192)
Description: Inhibition of MLK1 (unknown origin)

[14] = target: Dual specificity protein kinase CLK1 (Homo sapiens) (UniProt P49759); assay: Inhibition of human wild type CLK1 at 1 uM by qPCR analysis relative to control
[15] = target: Inhibitor of nuclear factor kappa-B kinase subunit beta (Homo sapiens) (UniProt O14920); assay: Inhibition of human wild type IKKbeta at 1 uM by qPCR analysis relative to control
[16] = target: Epidermal growth factor receptor (Homo sapiens) (UniProt P00533); assay: Inhibition of human wild type EGFR at 1 uM by qPCR analysis
[17] = target: Leucine-rich repeat serine/threonine-protein kinase 2 (Homo sapiens, UniProt Q5S007); assay: Inhibition of human wild type LRRK2 at 1 uM by qPCR analysis relative to control
[18] = target: Non-receptor tyrosine-protein kinase TYK2 (Homo sapiens) (UniProt P29597); assay: Inhibition of human wild type TYK2 at 1 uM by qPCR analysis relative to control
[19] = target: Tyrosine-protein kinase receptor UFO (Homo sapiens) (UniProt P30530); assay: Inhibition of human wild type AXL at 1 uM by qPCR analysis relative to control
[20] = target: Mitogen-activated protein kinase kinase kinase 10 (Homo sapiens, UniProt Q02779)
Description: Inhibition of MLK2 (unknown origin)

[21] = target: Mitogen-activated protein kinase 8 (Homo sapiens, UniProt P45983)
Description: Inhibition of wild type human wild type JNK1 by qPCR analysis

[22] = target: Hepatocyte growth factor receptor (Homo sapiens, UniProt P08581)
Description: Inhibition of wild type human c-MET by high throughput ATP-[33P] radiolabeled assay

[23] = target: ALK tyrosine kinase receptor (Homo sapiens) (UniProt Q9UM73); assay: Inhibition of human wild type ALK at 1 uM by qPCR analysis relative to control
Aurora kinase B = Aurora kinase B (Homo sapiens, UniProt Q96GD4)
Description: Inhibition of wild type human Aurora kinase B by high throughput ATP-[33P] radiolabeled assay

[24] = target: Mitogen-activated protein kinase 14 (Homo sapiens, UniProt Q16539); assay: Inhibition of human wild type p38alpha at 1 uM by qPCR analysis
[25] = target: Dual specificity tyrosine-phosphorylation-regulated kinase 1B (Homo sapiens) (UniProt Q9Y463); assay: Inhibition of human wild type DYRK1B at 1 uM by qPCR analysis relative to control
[26] = target: Serine/threonine-protein kinase MARK1 (Homo sapiens) (UniProt Q9P0L2); assay: Inhibition of human wild type MARK1 at 1 uM by qPCR analysis relative to control
[27] = target: Mitogen-activated protein kinase 1 (Homo sapiens, UniProt P28482)
Description: Inhibition of wild type human ERK2 by high throughput ATP-[33P] radiolabeled assay

T1 sequence (P00519 whole entry): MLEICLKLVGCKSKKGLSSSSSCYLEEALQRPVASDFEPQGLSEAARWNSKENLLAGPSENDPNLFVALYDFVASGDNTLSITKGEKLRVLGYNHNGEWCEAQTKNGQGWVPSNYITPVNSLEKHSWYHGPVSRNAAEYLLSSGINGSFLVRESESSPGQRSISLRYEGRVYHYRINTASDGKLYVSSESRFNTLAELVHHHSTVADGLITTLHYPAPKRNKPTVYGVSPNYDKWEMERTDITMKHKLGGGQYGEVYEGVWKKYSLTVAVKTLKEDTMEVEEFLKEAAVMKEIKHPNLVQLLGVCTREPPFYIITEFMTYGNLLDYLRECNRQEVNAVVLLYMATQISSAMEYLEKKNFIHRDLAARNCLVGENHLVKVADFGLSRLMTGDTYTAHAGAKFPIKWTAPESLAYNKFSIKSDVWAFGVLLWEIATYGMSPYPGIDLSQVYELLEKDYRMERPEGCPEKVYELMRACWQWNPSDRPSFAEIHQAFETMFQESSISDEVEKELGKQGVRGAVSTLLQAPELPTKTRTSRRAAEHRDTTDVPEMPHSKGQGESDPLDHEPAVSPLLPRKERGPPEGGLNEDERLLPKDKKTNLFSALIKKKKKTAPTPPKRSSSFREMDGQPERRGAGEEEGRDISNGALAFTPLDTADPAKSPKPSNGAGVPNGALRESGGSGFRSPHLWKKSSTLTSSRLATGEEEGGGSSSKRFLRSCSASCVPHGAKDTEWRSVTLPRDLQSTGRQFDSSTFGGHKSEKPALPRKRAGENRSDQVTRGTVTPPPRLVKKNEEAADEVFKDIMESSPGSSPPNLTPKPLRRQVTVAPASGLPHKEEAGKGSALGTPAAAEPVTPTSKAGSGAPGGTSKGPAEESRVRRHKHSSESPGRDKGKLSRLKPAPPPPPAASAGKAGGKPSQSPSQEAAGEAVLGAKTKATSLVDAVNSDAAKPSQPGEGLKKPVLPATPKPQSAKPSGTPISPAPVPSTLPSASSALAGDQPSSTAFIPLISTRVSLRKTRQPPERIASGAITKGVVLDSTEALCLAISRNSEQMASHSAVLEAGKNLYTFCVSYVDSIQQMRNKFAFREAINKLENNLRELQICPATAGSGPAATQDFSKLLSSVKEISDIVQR
Chain of Mitogen-activated protein kinase 14 (Q16539 whole entry): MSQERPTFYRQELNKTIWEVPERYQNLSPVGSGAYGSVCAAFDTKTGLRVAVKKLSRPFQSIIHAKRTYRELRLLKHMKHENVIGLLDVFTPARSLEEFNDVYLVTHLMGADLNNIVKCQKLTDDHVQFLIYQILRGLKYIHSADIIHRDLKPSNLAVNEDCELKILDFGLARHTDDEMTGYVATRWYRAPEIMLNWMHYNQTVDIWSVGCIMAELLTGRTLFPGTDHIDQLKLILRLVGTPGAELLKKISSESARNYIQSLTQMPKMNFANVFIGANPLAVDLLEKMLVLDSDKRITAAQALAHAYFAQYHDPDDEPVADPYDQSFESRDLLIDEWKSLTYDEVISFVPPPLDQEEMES
Chain of Mitogen-activated protein kinase 11 (Homo sapiens) (Q15759 whole entry): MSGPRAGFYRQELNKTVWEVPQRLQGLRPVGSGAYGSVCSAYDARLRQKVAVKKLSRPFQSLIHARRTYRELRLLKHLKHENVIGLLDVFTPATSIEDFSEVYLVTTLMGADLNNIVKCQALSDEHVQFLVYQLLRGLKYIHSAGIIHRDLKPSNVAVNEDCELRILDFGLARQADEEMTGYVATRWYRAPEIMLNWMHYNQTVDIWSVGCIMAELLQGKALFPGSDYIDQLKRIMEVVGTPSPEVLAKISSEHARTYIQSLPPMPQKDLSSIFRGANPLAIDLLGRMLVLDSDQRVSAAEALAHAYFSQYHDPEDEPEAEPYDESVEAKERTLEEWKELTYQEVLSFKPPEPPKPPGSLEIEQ
Chain of Leucine-rich repeat serine/threonine-protein kinase 2 (Homo sapiens), Q5S007 [G2019S] (Q5S007 whole entry G2019S): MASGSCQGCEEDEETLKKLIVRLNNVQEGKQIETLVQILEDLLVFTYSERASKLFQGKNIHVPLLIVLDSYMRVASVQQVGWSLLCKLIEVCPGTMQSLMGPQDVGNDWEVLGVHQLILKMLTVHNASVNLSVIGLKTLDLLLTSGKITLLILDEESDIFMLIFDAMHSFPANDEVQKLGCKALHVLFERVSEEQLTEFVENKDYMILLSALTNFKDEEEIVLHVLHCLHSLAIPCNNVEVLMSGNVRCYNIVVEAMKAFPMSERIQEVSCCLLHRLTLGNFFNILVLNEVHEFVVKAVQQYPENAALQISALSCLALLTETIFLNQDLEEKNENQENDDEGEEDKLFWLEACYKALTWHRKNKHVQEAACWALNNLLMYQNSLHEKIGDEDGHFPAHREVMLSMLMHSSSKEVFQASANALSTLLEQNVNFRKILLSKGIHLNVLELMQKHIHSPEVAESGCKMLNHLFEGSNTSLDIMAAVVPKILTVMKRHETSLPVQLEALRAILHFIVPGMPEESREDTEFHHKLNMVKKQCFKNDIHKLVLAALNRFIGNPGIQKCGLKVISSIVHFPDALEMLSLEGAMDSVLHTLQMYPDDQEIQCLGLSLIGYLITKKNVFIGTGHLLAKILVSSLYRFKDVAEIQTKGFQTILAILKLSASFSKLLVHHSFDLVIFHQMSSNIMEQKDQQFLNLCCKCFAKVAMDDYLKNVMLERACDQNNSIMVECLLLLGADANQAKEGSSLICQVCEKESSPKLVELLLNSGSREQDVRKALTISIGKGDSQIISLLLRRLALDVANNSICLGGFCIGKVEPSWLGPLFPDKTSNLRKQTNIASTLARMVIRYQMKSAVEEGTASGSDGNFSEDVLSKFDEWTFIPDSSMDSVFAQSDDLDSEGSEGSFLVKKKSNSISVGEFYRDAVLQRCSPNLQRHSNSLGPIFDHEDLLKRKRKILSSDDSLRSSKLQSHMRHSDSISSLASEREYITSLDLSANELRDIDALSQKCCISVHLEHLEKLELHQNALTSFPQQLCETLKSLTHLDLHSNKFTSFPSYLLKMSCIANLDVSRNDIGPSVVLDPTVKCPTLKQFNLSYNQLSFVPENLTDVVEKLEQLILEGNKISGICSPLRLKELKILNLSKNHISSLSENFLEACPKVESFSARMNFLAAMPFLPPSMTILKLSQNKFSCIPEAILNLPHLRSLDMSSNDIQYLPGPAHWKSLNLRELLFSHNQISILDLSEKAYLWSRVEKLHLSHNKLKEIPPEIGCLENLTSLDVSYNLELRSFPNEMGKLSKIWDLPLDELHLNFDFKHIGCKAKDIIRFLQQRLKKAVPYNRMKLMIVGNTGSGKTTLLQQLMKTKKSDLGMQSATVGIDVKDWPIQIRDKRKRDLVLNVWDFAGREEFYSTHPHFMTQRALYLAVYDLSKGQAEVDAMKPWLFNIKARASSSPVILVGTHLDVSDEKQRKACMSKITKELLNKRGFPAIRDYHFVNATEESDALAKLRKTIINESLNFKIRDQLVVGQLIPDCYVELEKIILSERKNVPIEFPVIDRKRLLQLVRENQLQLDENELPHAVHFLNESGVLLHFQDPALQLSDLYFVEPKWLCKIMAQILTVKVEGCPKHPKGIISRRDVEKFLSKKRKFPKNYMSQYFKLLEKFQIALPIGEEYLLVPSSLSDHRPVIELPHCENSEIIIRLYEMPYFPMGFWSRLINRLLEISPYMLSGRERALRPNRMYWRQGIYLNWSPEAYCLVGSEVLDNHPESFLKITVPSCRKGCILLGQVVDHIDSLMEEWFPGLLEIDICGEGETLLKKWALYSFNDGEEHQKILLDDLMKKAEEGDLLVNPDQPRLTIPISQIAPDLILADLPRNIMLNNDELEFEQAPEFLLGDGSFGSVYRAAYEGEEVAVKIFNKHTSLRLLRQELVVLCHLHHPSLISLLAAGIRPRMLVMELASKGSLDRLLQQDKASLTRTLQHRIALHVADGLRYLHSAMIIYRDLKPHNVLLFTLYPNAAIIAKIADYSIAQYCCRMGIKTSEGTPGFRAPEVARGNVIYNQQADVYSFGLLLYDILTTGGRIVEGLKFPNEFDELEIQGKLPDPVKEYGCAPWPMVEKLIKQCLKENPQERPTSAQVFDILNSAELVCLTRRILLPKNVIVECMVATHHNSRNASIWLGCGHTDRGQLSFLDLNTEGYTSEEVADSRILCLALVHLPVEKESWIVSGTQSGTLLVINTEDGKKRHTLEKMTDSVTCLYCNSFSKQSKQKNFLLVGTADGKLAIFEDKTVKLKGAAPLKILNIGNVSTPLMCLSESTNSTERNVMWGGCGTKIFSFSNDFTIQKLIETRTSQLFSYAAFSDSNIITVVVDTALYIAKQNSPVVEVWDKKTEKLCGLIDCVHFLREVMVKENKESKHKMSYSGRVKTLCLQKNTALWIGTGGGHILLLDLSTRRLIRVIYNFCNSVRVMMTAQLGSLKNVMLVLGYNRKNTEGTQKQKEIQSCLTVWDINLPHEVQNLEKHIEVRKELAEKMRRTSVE
Chain of Dual specificity protein kinase CLK1 (Homo sapiens) (P49759 whole entry, looked up): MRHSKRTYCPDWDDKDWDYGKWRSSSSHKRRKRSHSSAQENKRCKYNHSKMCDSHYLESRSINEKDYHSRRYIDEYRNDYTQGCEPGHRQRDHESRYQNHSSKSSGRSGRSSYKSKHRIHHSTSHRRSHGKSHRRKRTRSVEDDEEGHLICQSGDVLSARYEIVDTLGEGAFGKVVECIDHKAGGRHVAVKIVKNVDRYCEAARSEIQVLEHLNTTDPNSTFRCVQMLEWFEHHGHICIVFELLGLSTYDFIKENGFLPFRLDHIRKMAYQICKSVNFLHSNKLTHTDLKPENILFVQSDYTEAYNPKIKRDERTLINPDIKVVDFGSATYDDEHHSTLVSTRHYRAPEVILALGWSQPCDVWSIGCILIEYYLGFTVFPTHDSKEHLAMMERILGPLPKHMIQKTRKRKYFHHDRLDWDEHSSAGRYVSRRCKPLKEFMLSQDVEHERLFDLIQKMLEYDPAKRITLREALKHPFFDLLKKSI
Chain of Leucine-rich repeat serine/threonine-protein kinase 2 (Q5S007 whole entry): as the sequence (Q5S007 whole entry G2019S) above, with S2019G counted along it

Q: For `CN1CCN(Cc2ccc(-c3cnc4[nH]cc(-c5ccc6[nH]ccc6c5)c4c3)cc2)CC1`, which inhibition [1] is on record?
A: inactive

Q: What about the inhibition [2] of the same compound?
A: Active

Q: And the IC50 [3]?
A: 5050 nM

Q: And the inhibition [4]?
A: > 90%

Q: What about the IC50 [5] of the same compound?
A: 560 nM

Q: And the inhibition [6]?
A: > 90%

Q: What about the inhibition [7] of the same compound?
A: 96%

Q: And the IC50 [8]?
A: 4 nM

Q: What about the IC50 [9] of the same compound?
A: 661 nM

Q: And the IC50 (Cytochrome P450 2D6)?
A: > 30000 nM

Q: What about the IC50 [10] of the same compound?
A: 85 nM

Q: What about the inhibition [11] of the same compound?
A: > 90%

Q: And the inhibition [12]?
A: inactive

Q: And the IC50 [13]?
A: 19 nM

Q: What about the inhibition [14] of the same compound?
A: > 90%

Q: And the inhibition [15]?
A: > 90%

Q: What about the inhibition [16] of the same compound?
A: inactive

Q: And the inhibition [17]?
A: 92%

Q: And the inhibition [18]?
A: > 90%

Q: And the inhibition [19]?
A: > 90%

Q: And the IC50 [20]?
A: 42 nM

Q: And the IC50 [21]?
A: 3280 nM

Q: And the IC50 [22]?
A: 177 nM

Q: What about the inhibition [23] of the same compound?
A: > 90%

Q: What about the IC50 (Aurora kinase B) of the same compound?
A: 123 nM

Q: And the inhibition [24]?
A: inactive

Q: And the inhibition [25]?
A: > 90%

Q: What about the inhibition [26] of the same compound?
A: 92%

Q: What about the IC50 [27] of the same compound?
A: 6290 nM

From ChEMBL document CHEMBL2434948, “Discovery, synthesis, and characterization of an orally bioavailable, brain penetrant inhibitor of mixed lineage kinase 3” (J Med Chem, 2013)
